Columns and labels:
[1] = Evaluation of hygroscopicity (DVS; dynamic vapor sorption); assay type: physicochemical; settings: for Weight increase at relative humidity of 90% (%): DVS, 25° C., relative to weight at 0% RH after drying
Protocol: [3] Evaluation of Hygroscopicity (DVS; Dynamic Vapor Sorption)
Device: SGA-100 manufactured by TA Instruments,
Sample amount: 10 to 20 mg,
Measurement temperature: 25° C.,
Drying before measurement: 60° C., 1 hour,
Starting humidity: 0% RH,
Maximum humidity: 90% RH,
Equilibrium criteria: weight change rate in 5 minutes is 0.01% or less,
Sampling interval: 30 seconds,
Data recording interval: two minutes or time at which weight change rate become 0.01% or more.
Various acid addition salts of the compounds A produced in Examples (Examples 7, 8, 9, 10, 11, 12, 13, and 14) and the compound of the present invention (Example 6) were subjected to hygroscopicity evaluation. Based on the measurement conditions shown in [3] in [Study of acid addition salt of compound A], hygroscopicity was evaluated. Sample weight was recorded after the weight of the sample in the relative humidity set every 10% became equilibrium. After drying, the change amount (%) was converted on the basis of the weight when the relative humidity was 0%.

[2] = Light stability evaluation of active pharmaceutical ingredient; assay type: physicochemical; settings: for residual rate %: active pharmaceutical ingredient, 2500 Lux D65 lamp, 25° C., 20 days
Protocol: (§1) Ethanesulfonate of the compound A produced in Example 6 and p-toluenesulfonate of the compound A produced in Example 9 were evaluated in terms of the light stability. Each acid addition salt was weighed in a laboratory tube in about 1.8 to 2.2 mg, capped with a plastic cap and wrapped with a parafilm. A sample placed in the transparent laboratory tube was used as an exposure sample, a sample placed in the brown laboratory tube was used as a light shielded sample, and a sample placed in the brown laboratory tube and further covered with aluminum foil was used as an aluminum foil completely shielded sample. Each sample was exposed to light whose total illumination of 1200000 Lux-h or more and total near ultraviolet radiation energy of 200 W·h/m^2 or more by exposing to 2500 Lux D65 lamp at 25° C. for 20 days.
Detector: ultraviolet spectrometer (measurement wavelength: 215 nm),
Column: Imtakt Unison UK-C18 (3 μm, inner diameter: 4.6 mm×150 mm),
Column temperature: 40° C.,
Mobile phase: A liquid: 20 mM KH2PO4 aq. (pH 3.0), B liquid: CH3CN,
Flow rate: 1.0 mL/minute,
Area measurement range: 60 minutes
Sample concentration: 0.5 mg/mL.
(§2) The area percentage of ethanesulfonate of the compound A and p-toluenesulfonate of the compound A which were not exposed to light and stored at −20° C., and each acid addition salt of the compound A subjected to the above light stability test were calculated under the measurement conditions mentioned above. Next, in each acid addition salt of the compound A, the rate of the area percentage of the acid addition salt of the compound A which was not exposed to light and stored at −20° C. (area percentage of acid addition salt of compound A exposed to light for 20 days/area percentage of acid addition salt of compound A which is not exposed to light and stored at −20° C.×100) was calculated as the residual rate of each compound.

[3] = Light stability evaluation of simple formulation (mixed with CEOLUS PH-301); assay type: physicochemical; settings: simple formulation with CEOLUS PH-301 1 to 5 (weight ratio), 2500 Lux D65 lamp, 25° C., 20 days
Protocol: as §1, §2
Each acid addition salt of the compound A, regarding to ethanesulfonate of the compound A produced in Example 6 and p-toluenesulfonate of the compound A produced in Example 9, was mixed with CEOLUS (registered trademark) PH-301 (Asahi Kasei Corporation) in a mixing ratio of 1 to 5 (weight ratio) on a medicine paper with a spatula to prepare a simple formulation. The simple formulation was weighed into a laboratory tube in about 3 mg, capped with a plastic cap, and wrapped with a parafilm. Hereinafter, the light exposure condition of the compound, and the measurement conditions were corresponding to the […] of the stability of the active pharmaceutical ingredient of above (1).

CYP = settings: mentioned in Patent Literature 5 (WO2015/012298); cited from earlier work
Axl = molecular target: T1, Axl (Homo sapiens, UniProt P30530); settings: mentioned in Patent Literature 5 (WO2015/012298); cited from earlier work
T1 sequence (P30530 26-894): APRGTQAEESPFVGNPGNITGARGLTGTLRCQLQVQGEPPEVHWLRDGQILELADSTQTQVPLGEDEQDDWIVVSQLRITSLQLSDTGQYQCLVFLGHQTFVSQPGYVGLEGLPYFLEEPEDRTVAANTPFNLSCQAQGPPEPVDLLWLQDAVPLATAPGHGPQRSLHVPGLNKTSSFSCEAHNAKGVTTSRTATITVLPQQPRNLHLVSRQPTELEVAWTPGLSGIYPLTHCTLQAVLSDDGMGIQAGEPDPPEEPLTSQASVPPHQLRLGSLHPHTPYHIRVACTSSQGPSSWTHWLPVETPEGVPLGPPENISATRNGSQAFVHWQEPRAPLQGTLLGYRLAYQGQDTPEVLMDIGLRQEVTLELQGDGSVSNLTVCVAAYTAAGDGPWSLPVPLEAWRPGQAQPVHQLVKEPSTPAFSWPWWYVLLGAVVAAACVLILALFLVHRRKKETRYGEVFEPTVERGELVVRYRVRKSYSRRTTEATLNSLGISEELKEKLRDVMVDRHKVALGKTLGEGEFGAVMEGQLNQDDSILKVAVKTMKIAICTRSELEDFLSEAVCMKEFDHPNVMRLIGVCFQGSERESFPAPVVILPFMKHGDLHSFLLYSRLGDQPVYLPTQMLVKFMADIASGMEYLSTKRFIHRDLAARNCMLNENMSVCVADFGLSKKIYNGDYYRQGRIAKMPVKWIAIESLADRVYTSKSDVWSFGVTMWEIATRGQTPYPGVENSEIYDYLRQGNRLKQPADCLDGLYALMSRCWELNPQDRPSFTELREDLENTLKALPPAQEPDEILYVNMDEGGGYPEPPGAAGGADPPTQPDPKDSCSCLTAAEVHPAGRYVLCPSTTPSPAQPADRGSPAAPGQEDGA

[4] = Brown bottle (light shielded sample)
[5] = Transparent bottle (exposure sample)

COc1cc2nccc(Oc3ccc(NC(=O)c4cc5c(n(-c6ccccc6)c4=O)CCCC5=O)nc3)c2cc1OC.O=S(=O)(O)c1ccccc1 [Benzensuplhonate, N-{5-[(6,7-dimethoxy-4-quinolinyl)oxy]-2-pyridinyl}-2,5-dioxo-1-phenyl-1,2,5,6,7,8-hexahydro-3-quinolinecarboxamide benzenesulfonate]
Weight increase at relative humidity of 90% (%) [1]: 7.2%

COc1cc2nccc(Oc3ccc(NC(=O)c4cc5c(n(-c6ccccc6)c4=O)CCCC5=O)nc3)c2cc1OC.O=S(=O)(O)CCS(=O)(=O)O [Ethanedisulfonate, N-{5-[(6,7-dimethoxy-4-quinolinyl)oxy]-2-pyridinyl}-2,5-dioxo-1-phenyl-1,2,5,6,7,8-hexahydro-3-quinolinecarboxamide ethanedisulfonate]
Weight increase at relative humidity of 90% (%) [1]: 46.4%

CCS(=O)(=O)O.COc1cc2nccc(Oc3ccc(NC(=O)c4cc5c(n(-c6ccccc6)c4=O)CCCC5=O)nc3)c2cc1OC [Ethanesulfonate, N-{5-[(6,7-dimethoxy-4-quinolinyl)oxy]-2-pyridinyl}-2,5-dioxo-1-phenyl-1,2,5,6,7,8-hexahydro-3-quinolinecarboxamide ethanesulfonate]
residual rate % ([2]; Aluminum foil shielding): 100.0%
residual rate % [2, 4]: 99.5%
residual rate % [2, 5]: 94.5%
stability to light (in words) ([2]; compared with p-toluenesulfonate of the compound A, API and simple formulation): more excellent also in terms of the stability to light
Weight increase at relative humidity of 90% (%) [1]: 0.7%
rate of weight change upon moisture absorption (in words) ([1]; among various acid addition salts of the compound A): small rate of weight change upon moisture absorption
residual rate % ([3]; Aluminum foil shielding): 99.7%
residual rate % ([3]; Brown bottle): 98.4%
residual rate % ([3]; Transparent bottle): 59.3%

COc1cc2nccc(Oc3ccc(NC(=O)c4cc5c(n(-c6ccccc6)c4=O)CCCC5=O)nc3)c2cc1OC.Cl [Hydrochloride, N-{5-[(6,7-dimethoxy-4-quinolinyl)oxy]-2-pyridinyl}-2,5-dioxo-1-phenyl-1,2,5,6,7,8-hexahydro-3-quinolinecarboxamide hydrochloride]
Weight increase at relative humidity of 90% (%) [1]: 8.0%

COc1cc2nccc(Oc3ccc(NC(=O)c4cc5c(n(-c6ccccc6)c4=O)CCCC5=O)nc3)c2cc1OC.O=S(=O)(O)CCO [Isethionate, N-{5-[(6,7-dimethoxy-4-quinolinyl)oxy]-2-pyridinyl}-2,5-dioxo-1-phenyl-1,2,5,6,7,8-hexahydro-3-quinolinecarboxamide isethionate]
Weight increase at relative humidity of 90% (%) [1]: 14.5%

COc1cc2nccc(Oc3ccc(NC(=O)c4cc5c(n(-c6ccccc6)c4=O)CCCC5=O)nc3)c2cc1OC.CS(=O)(=O)O [Methanesulfonate, N-{5-[(6,7-dimethoxy-4-quinolinyl)oxy]-2-pyridinyl}-2,5-dioxo-1-phenyl-1,2,5,6,7,8-hexahydro-3-quinolinecarboxamide methanesulfonate]
Weight increase at relative humidity of 90% (%) [1]: 4.0%

COc1cc2nccc(Oc3ccc(NC(=O)c4cc5c(n(-c6ccccc6)c4=O)CCCC5=O)nc3)c2cc1OC.Cc1ccc(S(=O)(=O)O)cc1 [P-toluenesulfonate, N-{5-[(6,7-dimethoxy-4-quinolinyl)oxy]-2-pyridinyl}-2,5-dioxo-1-phenyl-1,2,5,6,7,8-hexahydro-3-quinolinecarboxamide p-toluenesulfonate]
residual rate % ([2]; Aluminum foil shielding): 100.6%
residual rate % [2, 4]: 92.7%
residual rate % [2, 5]: 86.1%
Weight increase at relative humidity of 90% (%) [1]: 2.6%
residual rate % ([3]; Aluminum foil shielding): 99.9%
residual rate % ([3]; Brown bottle): 83.3%
residual rate % ([3]; Transparent bottle): 40.7%

COc1cc2nccc(Oc3ccc(NC(=O)c4cc5c(n(-c6ccccc6)c4=O)CCCC5=O)nc3)c2cc1OC.O=P(O)(O)O [Phosphate, N-{5-[(6,7-dimethoxy-4-quinolinyl)oxy]-2-pyridinyl}-2,5-dioxo-1-phenyl-1,2,5,6,7,8-hexahydro-3-quinolinecarboxamide phosphate]
Weight increase at relative humidity of 90% (%) [1]: 5.5%

COc1cc2nccc(Oc3ccc(NC(=O)c4cc5c(n(-c6ccccc6)c4=O)CCCC5=O)nc3)c2cc1OC.O=S(=O)(O)O [Sulfate, N-{5-[(6,7-dimethoxy-4-quinolinyl)oxy]-2-pyridinyl}-2,5-dioxo-1-phenyl-1,2,5,6,7,8-hexahydro-3-quinolinecarboxamide sulfate]
Weight increase at relative humidity of 90% (%) [1]: 7.2%

COc1cc2nccc(Oc3ccc(NC(=O)c4cc5c(n(-c6ccccc6)c4=O)CCCC5=O)nc3)c2cc1OC [compound A, N-{5-[(6,7-dimethoxy-4-quinolinyl)oxy]-2-pyridinyl}-2,5-dioxo-1-phenyl-1,2,5,6,7,8-hexahydro-3-quinolinecarboxamide]
CYP inhibitory action (in words) (CYP): low CYP inhibitory action
Axl-selective inhibiting activity (in words) (Axl): Axl-selective inhibiting activity

— patent publication US10836747B2, “Ethane-sulfonate salt of quinoline derivative” (ONO PHARMACEUTICAL CO., LTD., priority 2017, dated 2020)
